# Test results reported in patent US20050239757A1, “Hormone treatment of macular degeneration” (priority 2004, published 2005).
# Several values for one entry are separate records, joined by “and”; a condition that tells them apart may be missing. Equal entries are not always repeated.
# Assays:
# [1] = system: serum anti-estrogen IgG antibodies; test: Competition ELISA: absorption of serum IgG anti-estrogen with specific and non-specific antigens; format: binding, human; conditions: for Absorption of serum IgG antibodies, in words: antigen added to the liquid phase; for Serum anti-estrogen IgG level after absorption / Percent inhibition after absorption (IgG): antigen 250 μg/mL; for Serum anti-estrogen IgG level after absorption: optical density at 405 nm; for Inhibition of anti-estrogen binding to estrogen (IgG), range over samples: antigen in liquid phase, Table 2
# Protocol: (§1) Enzyme-linked immunosorbent assay (ELISA) was used for testing antibodies against estrogen and progesterone in the sera of patients with premenstrual asthma and with control subjects. […] Plates were incubated overnight at 4° C. and then washed three times with […] of Tris-buffered saline (TBS) containing 0.05% Tween 20, pH 7.4. […] Plates were incubated for 2 h (for IgG and IgM) and overnight (for IgE), and then washed four times with PBS-Tween 20. Alkaline-phosphatase-conjugated goat anti-human IgG, IgM or IgE F(ab′)2 fragment at optimal dilution of 1:700 (IgG); 1:500 (IgM) and 1:250 (IgE) was added to corresponding wells. The plates were then incubated for an additional 2 h at room temperature. After washing five times with TBS-Tween buffer, the enzyme reaction was started by adding 100 μl of para-nitrophenylphosphate in 0.1 mL of diethanolamine buffer (1 mg/ml) containing 1 mM MgCl2 and sodium azide, pH 9.8. The reaction was stopped 45 minutes later with 50 μl of 1 N NaOH. The optical density was read at 405 nm (OD405) with a microtiter reader.
# (§2) 100 μl of serum diluent buffer was added to all wells. […] After a 60-minute incubation, 100 μl serum anti-estrogen or anti-progesterone was added to all wells. […] Results were calculated as a percentage of inhibition in antigen-antibody reaction.
# (§3) To examine whether antibodies to estrogen or progesterone are specific or cross-reactive, competition ELISA was performed by adding specific and non-specific antigens in liquid phase and examined prevention of serum antibody binding to the antigen in solid phase. […] This cross-reaction between estrogen and progesterone antibodies may be due to structural similarities between these two hormones.
# [2] = system: serum anti-estrogen IgE antibodies; test: Competition ELISA: absorption of serum IgE anti-estrogen with specific and non-specific antigens; format: binding, human; conditions: for Absorption of serum IgE antibodies, in words: antigen added to the liquid phase; for Serum anti-estrogen IgE level after absorption / Percent inhibition after absorption (IgE): antigen 250 μg/mL; for Serum anti-estrogen IgE level after absorption: optical density at 405 nm; for Inhibition of IgE anti-estrogen binding, range over samples: antigen in liquid phase, summary of Table 3
# Protocol: as §1, §2, §3
# macular degeneration = test: Clinical case: sublingual progesterone in a patient with macular degeneration; format: in vivo, human
# Protocol: An adult human presented with macular degeneration. They had visual acuity of 20/200 in each eye. After the use of sublingual progesterone, one application, their vision improved to 20/100 and 20/40. […] They were evaluated for hormone allergy therapy by assessing their anti-hormone antibodies and found to have elevated levels of IgE, IgG, and IgM antibodies to progesterone.
# The subject then received progesterone 1:10 sublingual drops which they continue to use.
# [3] = serum sample 1, before absorption 1.83
# [4] = serum sample 2, before absorption 1.25
# [5] = serum sample 3, before absorption 0.76
# [6] = serum sample 1, before absorption 2.15
# [7] = serum sample 2, before absorption 1.66
# [8] = serum sample 3, before absorption 1.34
"Inhibition of anti-estrogen binding to estrogen (IgG), range over samples [1]","Inhibition of IgE anti-estrogen binding, range over samples [2]",Molecule,"Absorption of serum IgG antibodies, in words [1]","Serum anti-estrogen IgG level after absorption [1, 3]","Serum anti-estrogen IgG level after absorption [1, 4]","Serum anti-estrogen IgG level after absorption [1, 5]","Absorption of serum IgE antibodies, in words [2]","Serum anti-estrogen IgE level after absorption [2, 6]","Serum anti-estrogen IgE level after absorption [2, 7]","Serum anti-estrogen IgE level after absorption [2, 8]",Percent inhibition after absorption (IgG) ([1]; serum sample 1),Percent inhibition after absorption (IgG) ([1]; serum sample 2),Percent inhibition after absorption (IgG) ([1]; serum sample 3),Percent inhibition after absorption (IgE) ([2]; serum sample 1),Percent inhibition after absorption (IgE) ([2]; serum sample 3),"Visual acuity after treatment (macular degeneration; adult human female, sublingual, one application, baseline 20/200 in each eye)","Ophthalmologist's assessment (macular degeneration; return visit two weeks later, as reported by the patient)",Percent inhibition after absorption (IgE) ([2]; serum sample 2)
–,–,bovine serum albumin [BSA],did not absorb,1.79,1.13,0.81,did not absorb,2.24,1.53,1.26,–,–,–,–,–,–,–,–
41-52%,37-43%,"Pn: Progesterone bound to bovine serum albumin, purchased from Sigma; antigen in competition ELISA",significantly absorbed,0.87,0.69,0.45,significantly absorbed,1.35,0.98,0.76,(52%),(45%),(41%),(37%),(43%),–,–,–
–,–,CC(=O)[C@H]1CC[C@H]2[C@@H]3CCC4=CC(=O)CC[C@]4(C)[C@H]3CC[C@]12C [progesterone],–,–,–,–,–,–,–,–,–,–,–,–,–,20/100 and 20/40,remarkably improved,–
52-67%,54-62%,"En: Estrogen (estradiol) bound to bovine serum albumin, purchased from Sigma; specific antigen in competition ELISA",significantly absorbed,0.61,0.52,0.37,significantly absorbed,0.96,0.77,0.51,(67%),(59%),(52%),(55%),(62%),–,–,(54%)
–,–,"myelin basic protein (protein, UniProt P02686 1-304, looked up) Myelin basic protein: MGNHAGKRELNAEKASTNSETNRGESEKKRNLGELSRTTSEDNEVFGEADANQNNGTSSQDTAVTDSKRTADPKNAWQDAHPADPGSRPHLIRLFSRDAPGREDNTFKDRPSESDELQTIQEDSAATSESLDVMASQKRPSQRHGSKYLATASTMDHARHGFLPRHRDTGILDSIGRFFGGDRGAPKRGSGKDSHHPARTAHYGSLPQKSHGRTQDENPVVHFFKNIVTPRTPPPSQGKGRGLSLSRFSWGAEGQRPGFGYGGRASDYKSAHKGFKGVDAQGTLSKIFKLGGRDSRSGSPMARR",did not absorb,1.67,1.13,0.68,did not absorb,2.05,1.73,1.11,–,–,–,–,–,–,–,–
